According to patent USRE48461E1, “Modulation of androgen receptor expression” (Ionis Pharmaceuticals, Inc., priority 2012, dated 2021):

Legend:
Format in all cases: cell-based, human
[1] = test system: 22RV1 cells; test: 22RV1 apoptosis (Caspase-glo 3/7); settings: 72 hours
Method: After a treatment period of 72 hours in complete medium or CSS+DHT medium, apoptosis of the cancer cells was measured with Caspase-glo 3/7 assay kit (Promega). Results are presented in Tables 131 and 132 as percent apoptosis of the cells, relative to non-treated cells.

[2] = test system: full length AR mRNA; test: Full-length AR RNA in 22RV1 cells (complete, CSS+DHT medium); settings: RNAiMax, 48 hrs
Method: Cells were plated at 1,000 cells per well. […] After an incubation period of 48 hrs, RNA levels of full length AR, the V7 variant, PSA and TMPRSS2 were measured.
After an incubation period of 48 hrs, RNA levels of full length AR, the V7 variant, PSA and TMPRSS2 were measured.
Cells were plated at 2,000 cells per well and cultured in CSS media for 16 hours. […] After 4 hrs, 1 nM DHT was added. […] After an incubation period of 48 hrs, RNA levels of AR, AR V7 variant, PSA and TMPRSS2 were measured.

[3] = test system: AR V7 variant mRNA; test: AR V7 variant RNA in 22RV1 cells; settings: RNAiMax, 48 hrs
[4] = test system: 22RV1 cells; test: 22RV1 cell proliferation, ASO in combination with MDV3100 (Example 22); settings: for Proliferation (% untreated control) in 22RV1 without MDV-3100: RNAiMAX, 3 days
Method: 22RV1 cells were plated at 2,000 cells per well in 5% CSS medium for 48 hours. […] ISIS 549148 was included as a negative control. […] After a treatment period of 3 days, the proliferative capacity of the cancer cells was measured with CellTiter 96® AQueous One Solution Cell Proliferation kit (Promega), following the manufacturer's instructions. Results are presented in Tables 58-62 as percent inhibition of proliferation, relative to non-treated cells.

[5] = test system: C4-2B cells; test: C4-2B cell proliferation (complete or CSS+DHT medium; Example 30); settings: 5 days; for Proliferation (% untreated control): C4-2B cells
Method: After a treatment period of 5 days in complete medium or CSS+1 nM DHT medium, the proliferative capacity of the cancer cells was measured with using CellTiter 96® AQueous One or CellTiter-Glo® Solution Cell Proliferation kit (Promega), following the manufacturer's instructions.

For “TGATTTAATGGTTGCA [ISIS 569236] (cEt/MOE gapmer chemistry, further chemistry not given here) [targets intron 1]”, the “Apoptosis (% untreated control)” value ([1]; 22RV1 cells, complete medium, 40 nM) was 1452 % untreated control, the “apoptosis of 22RV1 cells” value ([1]; complete or CSS+DHT medium) was “increased apoptosis of the cells in a dose dependent compared to the control” and the “Percent inhibition of full-length AR” value ([2]; CSS + DHT medium, 1.34 nM) was 59%. The “Percent inhibition of full-length AR” value ([2]; CSS + DHT medium, 4.0 nM) was 89%, the “Percent inhibition of full-length AR” value ([2]; CSS + DHT medium, 13.4 nM) was 97% and the “Percent inhibition of full-length AR” value ([2]; complete medium, 1.34 nM) was 17%. The “Percent inhibition of full-length AR” value ([2]; complete medium, 4.0 nM) was 15%, the “Percent inhibition of full-length AR” value ([2]; complete medium, 13.4 nM) was 37% and the “Percent inhibition of full-length AR” value ([2]; complete medium, 40 nM) was 71%. The “Percent inhibition of AR V7 variant” value ([3]; CSS + DHT medium, 1.34 nM) was 54%, the “Percent inhibition of AR V7 variant” value ([3]; CSS + DHT medium, 4.0 nM) was 88% and the “Percent inhibition of AR V7 variant” value ([3]; CSS + DHT medium, 13.4 nM) was 97%. For the same sequence, the “Percent inhibition of AR V7 variant” value ([3]; complete medium, 1.34 nM) was 30%, the “Percent inhibition of AR V7 variant” value ([3]; complete medium, 4.0 nM) was 2% and the “Percent inhibition of AR V7 variant” value ([3]; complete medium, 13.4 nM) was 46%. For the same sequence, the “Percent inhibition of AR V7 variant” value ([3]; complete medium, 40 nM) was 81%, the “synergy with MDV3100” value ([4]; 22RV1 cells) was “synergistic with MDV3100” and the “inhibited cell proliferation, ASO alone” value ([4]; 22RV1 cells, ASO alone at 1.0 μM) was 17%. The “cell proliferation inhibited, combination” value ([4]; 22RV1 cells, ISIS 569236 (1.0 μM as printed) in combination with 1.0 μM MDV3100) was 30%, the “Proliferation (% untreated control) in 22RV1 cells with 0.04 μM MDV-3100” value ([4]; ASO dose 0.4 nM + 0.04 μM MDV-3100) was 83 % untreated control and the “Proliferation (% untreated control) in 22RV1 cells with 0.2 μM MDV-3100” value ([4]; ASO dose 0.4 nM + 0.2 μM MDV-3100) was 93 % untreated control. For the same sequence, the “Proliferation (% untreated control) in 22RV1 cells with 1.0 μM MDV-3100” value ([4]; ASO dose 0.4 nM + 1.0 μM MDV-3100) was 79 % untreated control, the “Proliferation (% untreated control) in 22RV1 cells with 5.0 μM MDV-3100” value ([4]; ASO dose 0.4 nM + 5.0 μM MDV-3100) was 82 % untreated control and the “Proliferation (% untreated control) in 22RV1 without MDV-3100” value ([4]; ASO dose 0.4 nM) was 97 % untreated control. For the same sequence, the “Proliferation (% untreated control) in 22RV1 cells with 0.04 μM MDV-3100” value ([4]; ASO dose 1.34 nM + 0.04 μM MDV-3100) was 70 % untreated control, the “Proliferation (% untreated control) in 22RV1 cells with 0.2 μM MDV-3100” value ([4]; ASO dose 1.34 nM + 0.2 μM MDV-3100) was 77 % untreated control and the “Proliferation (% untreated control) in 22RV1 cells with 1.0 μM MDV-3100” value ([4]; ASO dose 1.34 nM + 1.0 μM MDV-3100) was 70 % untreated control. For the same sequence, the “Proliferation (% untreated control) in 22RV1 cells with 5.0 μM MDV-3100” value ([4]; ASO dose 1.34 nM + 5.0 μM MDV-3100) was 72 % untreated control, the “Proliferation (% untreated control) in 22RV1 without MDV-3100” value ([4]; ASO dose 1.34 nM) was 83 % untreated control and the “Proliferation (% untreated control) in 22RV1 cells with 0.04 μM MDV-3100” value ([4]; ASO dose 4.0 nM + 0.04 μM MDV-3100) was 61 % untreated control. The “Proliferation (% untreated control) in 22RV1 cells with 0.2 μM MDV-3100” value ([4]; ASO dose 4.0 nM + 0.2 μM MDV-3100) was 60 % untreated control, the “Proliferation (% untreated control) in 22RV1 cells with 1.0 μM MDV-3100” value ([4]; ASO dose 4.0 nM + 1.0 μM MDV-3100) was 52 % untreated control and the “Proliferation (% untreated control) in 22RV1 cells with 5.0 μM MDV-3100” value ([4]; ASO dose 4.0 nM + 5.0 μM MDV-3100) was 52 % untreated control. The “Proliferation (% untreated control) in 22RV1 without MDV-3100” value ([4]; ASO dose 4.0 nM) was 69 % untreated control, the “Proliferation (% untreated control) in 22RV1 cells with 0.04 μM MDV-3100” value ([4]; ASO dose 13.4 nM + 0.04 μM MDV-3100) was 24 % untreated control and the “Proliferation (% untreated control) in 22RV1 cells with 0.2 μM MDV-3100” value ([4]; ASO dose 13.4 nM + 0.2 μM MDV-3100) was 20 % untreated control. The “Proliferation (% untreated control) in 22RV1 cells with 1.0 μM MDV-3100” value ([4]; ASO dose 13.4 nM + 1.0 μM MDV-3100) was 18 % untreated control, the “Proliferation (% untreated control) in 22RV1 cells with 5.0 μM MDV-3100” value ([4]; ASO dose 13.4 nM + 5.0 μM MDV-3100) was 24 % untreated control and the “Proliferation (% untreated control) in 22RV1 without MDV-3100” value ([4]; ASO dose 13.4 nM) was 37 % untreated control. The “Proliferation (% untreated control)” value ([5]; CSS + DHT medium, 0.04 μM) was 109 % untreated control, the “Proliferation (% untreated control)” value ([5]; CSS + DHT medium, 0.2 μM) was 109 % untreated control and the “Proliferation (% untreated control)” value ([5]; CSS + DHT medium, 1 μM) was 67 % untreated control. The “Proliferation (% untreated control)” value ([5]; CSS + DHT medium, 5.0 μM) was 39 % untreated control, the “Proliferation (% untreated control)” value ([5]; complete medium, 0.04 μM) was 98 % untreated control and the “Proliferation (% untreated control)” value ([5]; complete medium, 0.2 μM) was 64 % untreated control. For the same sequence, the “Proliferation (% untreated control)” value ([5]; complete medium, 1 μM) was 55 % untreated control, the “Proliferation (% untreated control)” value ([5]; complete medium, 5.0 μM) was 48 % untreated control and the “proliferation of C4-2B cells” value ([5]; complete medium or CSS+1 nM DHT) was “reduced proliferation of the cells in a dose dependent compared to the control”.
